Measurements reported in ChEMBL document CHEMBL1201862, “PubChem BioAssay data set” (2004).
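Protocol summary: plate cells (96-well), add compound at 5 concentrations, incubate 48 h, interpolate endpoints linearly. GI50 is the concentration that inhibits growth by half.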 Calls of active or inactive are those of the source. Cut-off read from the data, not from the text of the source: active = GI50 up to about 1.1 µM and inactive = higher.

Experiments:
Assay in all cases: inhibition of tumour cell growth, NCI panel, 48 h
MDA-MB-435 = test system: MDA-MB-435
MDA-MB-231 = test system: MDA-MB-231
Hs-578T = test system: Hs-578T
DU-145 = test system: DU-145
PC-3 = test system: PC-3
MDA-N = test system: MDA-N
BT-549 = test system: BT-549
T47D = test system: T47D
786-0 = test system: 786-0

Measured: GI50

CN(Cc1cnc2c(N)nc(N)nc2n1)c1ccc(Cl)cc1
inactive: MDA-MB-435 > 100 µM | MDA-MB-231 > 100 µM | Hs-578T 33.9 µM | DU-145 > 100 µM | PC-3 65.5 µM | MDA-N > 100 µM | BT-549 > 100 µM | T47D 52.5 µM

COc1cc([N+](=O)[O-])ccc1NC(=O)C(F)(F)F
inactive: MDA-MB-435 > 100 µM | MDA-MB-231 > 100 µM | Hs-578T > 100 µM | DU-145 > 100 µM | PC-3 > 100 µM | MDA-N > 100 µM | BT-549 > 100 µM | 786-0 > 100 µM | T47D 97.7 µM
